“And” between values parts separate entries of the source, which are not always exact repeats. Equal entries are not always repeated. Toxic doses and inconclusive results are not listed.
Test system: P388 leukemia ip, CD2F1 mice, survival T/C
Experiment: NCI In Vivo Anticancer Drug Screen. Data for tumor model P388 Leukemia (intraperitoneal) in CD2F1 (CDF1) mice
Details: endpoint: median survival time, higher = longer survival
Outline: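 Mice carrying the transplanted tumor received test compound or vehicle. Survival was recorded in each group, and the value is the treated-group measurement divided by that of the vehicle-treated control group.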

[1] = dose: 60.0 mg/kg/injection, schedule: Q01DX005 (ip), vehicle: Klucel (hydroxypropylcellulose) (HPC)
[2] = dose: 120.0 mg/kg/injection, schedule: Q01DX005 (ip), vehicle: Klucel (hydroxypropylcellulose) (HPC)
[3] = dose: 240.0 mg/kg/injection, schedule: Q01DX005 (ip), vehicle: Klucel (hydroxypropylcellulose) (HPC)
[4] = dose: 100.0 mg/kg/injection, schedule: Q04DX002 (ip), vehicle: saline
[5] = dose: 50.0 mg/kg/injection, schedule: Q01DX009 (ip), vehicle: saline with Tween-80
[6] = dose: 100.0 mg/kg/injection, schedule: Q01DX009 (ip), vehicle: saline with Tween-80
[7] = dose: 200.0 mg/kg/injection, schedule: Q01DX009 (ip), vehicle: saline with Tween-80
[8] = dose: 50.0 mg/kg/injection, schedule: Q01DX009 (ip), vehicle: saline
[9] = dose: 100.0 mg/kg/injection, schedule: Q01DX009 (ip), vehicle: saline
[10] = dose: 200.0 mg/kg/injection, schedule: Q01DX009 (ip), vehicle: saline

SMILES: COc1ccc(C(=O)C(=O)c2ccccc2)cc1
- T/C [1]: 105 % of control
- T/C [2]: 100 % of control
- T/C [3]: 98 % of control

SMILES: CC(=O)OCCN1CCN(CCCN2c3ccccc3Sc3ccc(C(F)(F)F)cc32)CC1
- T/C [4]: 89 % of control and 90 % of control

SMILES: O=C(O)C(Cc1ccccc1F)NC(=O)C(F)(F)F (stereo unspecified)
- T/C [5]: 92 % of control
- T/C [6]: 94 % of control
- T/C [7]: 100 % of control

SMILES: COc1ccc2c(c1O)N(C(C)=O)C1C3C(O)OCC=C4CN5CCC21C5CC43 (stereo unspecified)
- T/C (dose: 4.5 mg/kg/injection, schedule: Q01DX009 (ip), vehicle: Klucel (hydroxypropylcellulose) (HPC)): 100 % of control
- T/C (dose: 5.0 mg/kg/injection, schedule: Q01DX009 (ip), vehicle: saline): 116 % of control
- T/C (dose: 9.0 mg/kg/injection, schedule: Q01DX009 (ip), vehicle: Klucel (hydroxypropylcellulose) (HPC)): 103 % of control
- T/C (dose: 10.0 mg/kg/injection, schedule: Q01DX009 (ip), vehicle: saline): 111 % of control
- T/C (dose: 18.0 mg/kg/injection, schedule: Q01DX009 (ip), vehicle: Klucel (hydroxypropylcellulose) (HPC)): 101 % of control
- T/C (dose: 20.0 mg/kg/injection, schedule: Q01DX009 (ip), vehicle: saline): 118 % of control
- T/C (dose: 36.0 mg/kg/injection, schedule: Q01DX009 (ip), vehicle: Klucel (hydroxypropylcellulose) (HPC)): 110 % of control
- T/C (dose: 72.0 mg/kg/injection, schedule: Q01DX009 (ip), vehicle: Klucel (hydroxypropylcellulose) (HPC)): 104 % of control

SMILES: CN(C)c1ccc(C(N)=O)cn1
- T/C (dose: 1.56 mg/kg/injection, schedule: Q01DX009 (ip), vehicle: saline with Tween-80): 109 % of control
- T/C (dose: 6.25 mg/kg/injection, schedule: Q01DX009 (ip), vehicle: saline with Tween-80): 90 % of control
- T/C (dose: 12.5 mg/kg/injection, schedule: Q04DX003 (ip), vehicle: saline with Tween-80): 109 % of control
- T/C (dose: 25.0 mg/kg/injection, schedule: Q04DX003 (ip), vehicle: saline with Tween-80): 118 % of control
- T/C (dose: 50.0 mg/kg/injection, schedule: Q04DX003 (ip), vehicle: saline with Tween-80): 118 % of control

SMILES: C[N+](C)(C)CCO
- T/C (dose: 12.5 mg/kg/injection, schedule: Q01DX009 (ip), vehicle: saline): 105 % of control
- T/C (dose: 25.0 mg/kg/injection, schedule: Q01DX009 (ip), vehicle: saline): 98 % of control
- T/C [8]: 96 % of control

SMILES: CC(C)(C)OC(=O)NC(CC(=O)O)C(=O)O (stereo unspecified)
- T/C [8]: 111 % of control
- T/C [9]: 93 % of control
- T/C [10]: 104 % of control

SMILES: COc1ccc(C2=C(C#N)C(=C(C#N)C#N)NC(N)=C2C#N)cc1
- T/C [1]: 105 % of control
- T/C [2]: 91 % of control

SMILES: Cc1nc(N)c2[nH]cnc2n1
- T/C (dose: 50.0 mg/kg/injection, schedule: Q01DX005 (ip), vehicle: Klucel (hydroxypropylcellulose) (HPC)): 99 % of control
- T/C (dose: 100.0 mg/kg/injection, schedule: Q01DX005 (ip), vehicle: Klucel (hydroxypropylcellulose) (HPC)): 100 % of control
- T/C (dose: 200.0 mg/kg/injection, schedule: Q01DX005 (ip), vehicle: Klucel (hydroxypropylcellulose) (HPC)): 99 % of control

SMILES: C=C1CC2(OC1=O)C1CC3CC(C1)CC2C3 (stereo unspecified)
- T/C [4]: 99 % of control
- T/C (dose: 200.0 mg/kg/injection, schedule: Q04DX002 (ip), vehicle: saline): 98 % of control
- T/C (dose: 400.0 mg/kg/injection, schedule: Q04DX002 (ip), vehicle: saline): 99 % of control

SMILES: C=CCCCCCCCCCC(=O)C=C
- T/C (dose: 2.75 mg/kg/injection, schedule: Q01DX005 (ip), vehicle: Klucel (hydroxypropylcellulose) (HPC)): 98 % of control
- T/C (dose: 5.5 mg/kg/injection, schedule: Q01DX005 (ip), vehicle: Klucel (hydroxypropylcellulose) (HPC)): 99 % of control
- T/C (dose: 11.0 mg/kg/injection, schedule: Q01DX005 (ip), vehicle: Klucel (hydroxypropylcellulose) (HPC)): 92 % of control
- T/C (dose: 22.0 mg/kg/injection, schedule: Q01DX005 (ip), vehicle: Klucel (hydroxypropylcellulose) (HPC)): 92 % of control
- T/C (dose: 44.0 mg/kg/injection, schedule: Q01DX005 (ip), vehicle: Klucel (hydroxypropylcellulose) (HPC)): 91 % of control

SMILES: Cc1cc2c(cc1C)NC(c1ccc(C(N)=S)cc1)N2
- T/C (dose: 100.0 mg/kg/injection, schedule: Q04DX002 (ip), vehicle: saline with Tween-80): 92 % of control
- T/C (dose: 200.0 mg/kg/injection, schedule: Q04DX002 (ip), vehicle: saline with Tween-80): 86 % of control

SMILES: O=NNc1nc(-c2ccccn2)nc2ccccc12
- T/C (dose: 3.12 mg/kg/injection, schedule: Q01DX009 (ip), vehicle: DMSO): 109 % of control
- T/C (dose: 6.25 mg/kg/injection, schedule: Q01DX009 (ip), vehicle: DMSO): 94 % of control
- T/C (dose: 12.5 mg/kg/injection, schedule: Q01DX009 (ip), vehicle: DMSO): 105 % of control
- T/C (dose: 25.0 mg/kg/injection, schedule: Q01DX009 (ip), vehicle: DMSO): 102 % of control

SMILES: COc1ccc2cc1Oc1ccc(cc1)CC1c3cc(OC)c(cc3CCN1C)Oc1c(O)c(OC)cc3c1C(C2)N(C)CC3 (stereo unspecified)
- T/C (dose: 3.88 mg/kg/injection, schedule: Q01DX005 (ip), vehicle: Klucel (hydroxypropylcellulose) (HPC)): 103 % of control
- T/C (dose: 7.75 mg/kg/injection, schedule: Q01DX005 (ip), vehicle: Klucel (hydroxypropylcellulose) (HPC)): 95 % of control
- T/C (dose: 15.5 mg/kg/injection, schedule: Q01DX005 (ip), vehicle: Klucel (hydroxypropylcellulose) (HPC)): 95 % of control
- T/C (dose: 31.0 mg/kg/injection, schedule: Q01DX005 (ip), vehicle: Klucel (hydroxypropylcellulose) (HPC)): 95 % of control

SMILES: CCCCN(CCCC)CC(O)c1c2cccc(Cl)c2cc2c(Cl)cccc12 (stereo unspecified)
- T/C [5]: 98 % of control and 99 % of control
- T/C [6]: 99 % of control and 92 % of control
- T/C [7]: 90 % of control
- T/C (dose: 400.0 mg/kg/injection, schedule: Q01DX009 (ip), vehicle: saline with Tween-80): 90 % of control

SMILES: O=C1C(N=Nc2ccc(S(=O)(=O)Nc3ccccn3)cc2)C(=O)N(c2ccccc2)C(=S)N1c1ccccc1
- T/C (dose: 60.0 mg/kg/injection, schedule: Q01DX005 (ip), vehicle: saline): 95 % of control
- T/C (dose: 120.0 mg/kg/injection, schedule: Q01DX005 (ip), vehicle: saline): 104 % of control
- T/C (dose: 240.0 mg/kg/injection, schedule: Q01DX005 (ip), vehicle: saline): 100 % of control

SMILES: Clc1cccn2cnnc12
- T/C [5]: 98 % of control
- T/C [6]: 103 % of control
- T/C [7]: 100 % of control

SMILES: C/C(=N\N=C(N)N)c1cnc(N)nc1C
- T/C [1]: 98 % of control
- T/C [2]: 97 % of control
- T/C [3]: 100 % of control

SMILES: CCOC(=O)Nc1cc(NC/C(=N/O)c2ccc(C(F)(F)F)cc2)c([N+](=O)[O-])c(N)n1
- T/C (dose: 50.0 mg/kg/injection, schedule: Q01DX001 (ip), vehicle: saline with Tween-80): 94 % of control
- T/C (dose: 100.0 mg/kg/injection, schedule: Q01DX001 (ip), vehicle: saline with Tween-80): 96 % of control

SMILES: C[CH2][Sn]([CH2]C)([O]S(C)(=O)=O)[O]S(C)(=O)=O
- T/C (dose: 1.56 mg/kg/injection, schedule: Q04DX003 (ip), vehicle: saline): 114 % of control
- T/C (dose: 6.25 mg/kg/injection, schedule: Q04DX003 (ip), vehicle: saline): 117 % of control and 118 % of control
- T/C (dose: 12.5 mg/kg/injection, schedule: Q04DX003 (ip), vehicle: saline): 164 % of control

SMILES: Nc1nc2c(C(=O)N3CCCC3)nnn2c2ccccc12
- T/C [5]: 93 % of control
- T/C [6]: 94 % of control

SMILES: CC(C)N1CCN(c2ccncc2S(=O)(=O)N2CCN(C)CC2)CC1
- T/C [8]: 106 % of control
- T/C [9]: 90 % of control
- T/C [10]: 99 % of control

SMILES: Cc1ccc(/C=C/C(=O)C(CN(C)C)CN(C)C)cc1
- T/C (dose: 1.56 mg/kg/injection, schedule: Q01DX005 (ip), vehicle: saline): 100 % of control
- T/C (dose: 3.12 mg/kg/injection, schedule: Q01DX005 (ip), vehicle: saline): 106 % of control

SMILES: CCCCCCCC(Nc1nncs1)Nc1nncs1
- T/C (dose: 15.0 mg/kg/injection, schedule: Q01DX005 (ip), vehicle: saline with Tween-80): 101 % of control
- T/C (dose: 30.0 mg/kg/injection, schedule: Q01DX005 (ip), vehicle: saline with Tween-80): 92 % of control
- T/C (dose: 60.0 mg/kg/injection, schedule: Q01DX005 (ip), vehicle: saline with Tween-80): 87 % of control and 90 % of control
- T/C (dose: 240.0 mg/kg/injection, schedule: Q01DX005 (ip), vehicle: saline with Tween-80): 91 % of control

SMILES: Cc1cc(O)c(NCCCN(C)C)c2c(=O)c3ccccc3sc12
- T/C (dose: 25.0 mg/kg/injection, schedule: Q01DX009 (ip), vehicle: saline with Tween-80): 97 % of control
- T/C [5]: 93 % of control
- T/C [6]: 110 % of control

Reference: PubChem BioAssay AID330 (DTP/NCI, 2004)
